What was measured:
[1] = tested on: barnyardgrass; test: Test C postemergence; type: in vivo, Echinochloa crusgalli; details: 10 days
In short: (§1)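 Greenhouse herbicide screen, 10-day duration. Test chemicals in solvent/surfactant blend were sprayed onto soil at sowing (pre) or onto 2–10 cm seedlings at one to two leaves (post); injury scored visually against controls, 0 no effect to 100 complete control.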

[2] = tested on: barnyardgrass; test: Test D flooded paddy test; type: in vivo, Echinochloa crus-galli; details: 250 g ai/ha, applied to paddy water, visual rating after 13 to 14 days, scale 0 to 100 (0 no effect, 100 complete control)
In short: (§2)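 Seedlings reached the 2-leaf stage, then pots were flooded to 3 cm over the soil surface. Compound was applied into the water, depth was maintained, and plants stayed in the greenhouse 13 to 14 days before visual scoring (0–100) relative to controls.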

[3] = tested on: oat, wild; test: Test C preemergence; type: in vivo, Avena fatua; details: for Plant response rating, Oat, Wild: Preemergence; for Oat, Wild plant response rating: preemergence
In short: as §1

[4] = tested on: pigweed, palmer; test: Test C preemergence; type: in vivo, Amaranthus palmeri; details: for Plant response rating, Pigweed, Palmer: Preemergence; for Pigweed, Palmer plant response rating: preemergence
In short: as §1

[5] = tested on: wheat; test: Test C preemergence; type: in vivo, Triticum aestivum; details: for Plant response rating, Wheat: Preemergence; for Wheat plant response rating: preemergence
In short: as §1

[6] = tested on: rice; test: Test D flooded paddy test; type: in vivo, Oryza sativa; details: 250 g ai/ha, applied to paddy water, visual rating after 13 to 14 days, scale 0 to 100 (0 no effect, 100 complete control)
In short: as §2

[7] = tested on: horseweed; test: Test C postemergence; type: in vivo, Erigeron canadensis; details: 10 days
In short: as §1

[8] = tested on: galium; test: Test C postemergence; type: in vivo, Galium aparine; details: 10 days
In short: as §1

[9] = tested on: corn; test: Test C preemergence; type: in vivo, Zea mays; details: for Plant response rating, Corn: Preemergence; for Corn plant response rating: preemergence
In short: as §1

[10] = tested on: ryegrass, Italian; test: Test C preemergence; type: in vivo, Lolium multiflorum; details: for Plant response rating, Ryegrass, Italian: Preemergence; for Ryegrass, Italian plant response rating: preemergence
In short: as §1

[11] = tested on: corn; test: Test C postemergence; type: in vivo, Zea mays; details: 10 days
In short: as §1

[12] = tested on: blackgrass; test: Test C preemergence; type: in vivo, Alopecurus myosuroides; details: for Plant response rating, Blackgrass: Preemergence; for Blackgrass plant response rating: preemergence
In short: as §1

[13] = tested on: soybean; test: Test C postemergence; type: in vivo, Glycine max; details: 10 days
In short: as §1

[14] = tested on: green foxtail; test: Test C preemergence; type: in vivo, Setaria viridis; details: for Plant response rating, Foxtail, Green: Preemergence; for Foxtail, Green plant response rating: preemergence
In short: as §1

[15] = tested on: ragweed; test: Test C preemergence; type: in vivo, Ambrosia artemisiifolia; details: for Plant response rating, Ragweed: Preemergence; for Ragweed plant response rating: preemergence
In short: as §1

[16] = tested on: pigweed, palmer; test: Test C postemergence; type: in vivo, Amaranthus palmeri; details: 10 days
In short: as §1

[17] = tested on: ragweed; test: Test C postemergence; type: in vivo, Ambrosia artemisiifolia; details: 10 days
In short: as §1

[18] = tested on: kochia; test: Test C postemergence; type: in vivo, Bassia scoparia; details: 10 days
In short: as §1

[19] = tested on: soybean; test: Test C preemergence; type: in vivo, Glycine max; details: for Plant response rating, Soybean: Preemergence; for Soybean plant response rating: preemergence
In short: as §1

[20] = tested on: ryegrass, Italian; test: Test C postemergence; type: in vivo, Lolium multiflorum; details: 10 days
In short: as §1

[21] = tested on: kochia; test: Test C preemergence; type: in vivo, Bassia scoparia; details: for Plant response rating, Kochia: Preemergence; for Kochia plant response rating: preemergence
In short: as §1

[22] = tested on: wheat; test: Test C postemergence; type: in vivo, Triticum aestivum; details: 10 days
In short: as §1

[23] = tested on: sedge, umbrella; test: Test D flooded paddy test; type: in vivo, Cyperus difformis; details: 250 g ai/ha, applied to paddy water, visual rating after 13 to 14 days, scale 0 to 100 (0 no effect, 100 complete control)
In short: as §2

[24] = tested on: green foxtail; test: Test C postemergence; type: in vivo, Setaria viridis; details: 10 days
In short: as §1

[25] = tested on: blackgrass; test: Test C postemergence; type: in vivo, Alopecurus myosuroides; details: 10 days
In short: as §1

[26] = tested on: oat, wild; test: Test C postemergence; type: in vivo, Avena fatua; details: 10 days
In short: as §1

[27] = tested on: ducksalad; test: Test D flooded paddy test; type: in vivo, Heteranthera limosa; details: 250 g ai/ha, applied to paddy water, visual rating after 13 to 14 days, scale 0 to 100 (0 no effect, 100 complete control)
In short: as §2

[28] = tested on: barnyardgrass; test: Test C preemergence; type: in vivo, Echinochloa crusgalli; details: for Plant response rating, Barnyardgrass: Preemergence; for Barnyardgrass plant response rating: preemergence
In short: as §1

[29] = 125 g ai/ha, postemergence, 0 to 100 scale, 0 no effect, 100 complete control
[30] = Postemergence, 500 g ai/ha, visual 0 to 100 scale (0 no effect, 100 complete control)
[31] = 500 g ai/ha, visual rating after 10 days, 0 to 100 scale (0 no effect, 100 complete control)
[32] = Test C, 125 g ai/ha, 0 to 100 scale (0 no effect, 100 complete control)
[33] = 500 g ai/ha, postemergence, 0 to 100 scale (0 no effect, 100 complete control)
[34] = Postemergence, 125 g ai/ha, 0 to 100 scale (0 no effect, 100 complete control)
[35] = 500 g ai/ha, 0 to 100 scale (0 no effect, 100 complete control)
[36] = 125 g ai/ha, 0 to 100 scale, 0 no effect, 100 complete control

SMILES: Cc1cc(-n2cnc(C(C)C)n2)cc(C(=O)N2C[C@H](C)Oc3c(Cl)cccc32)c1Cl [Compound 220]
- Plant response rating, Barnyardgrass [1, 29]: 30
- Plant response rating, Barnyardgrass [1, 30]: 90
- Plant response rating, Barnyardgrass (Flood) [2]: 0
- Plant response rating, Oat, Wild [3, 31]: 70
- Oat, Wild plant response rating [3, 32]: 60
- Plant response rating, Pigweed, Palmer [4, 31]: 100
- Pigweed, Palmer plant response rating [4, 32]: 90
- Plant response rating, Wheat [5, 31]: 70
- Wheat plant response rating [5, 32]: 20
- Plant response rating, Rice (Flood) [6]: 0
- Plant response rating, Horseweed [7, 29]: 60
- Plant response rating, Horseweed [7, 30]: 30
- Plant response rating, Galium [8, 29]: 100
- Plant response rating, Galium [8, 30]: 100
- Plant response rating, Corn [9, 31]: 10
- Corn plant response rating [9, 32]: 0
- Plant response rating, Ryegrass, Italian [10, 31]: 90
- Ryegrass, Italian plant response rating [10, 32]: 80
- Plant response rating, Corn [11, 29]: 10
- Plant response rating, Corn [11, 30]: 20
- Plant response rating, Blackgrass [12, 31]: 70
- Blackgrass plant response rating [12, 32]: 40
- Plant response rating, Soybean [13, 29]: 100
- Plant response rating, Soybean [13, 30]: 100
- Plant response rating, Foxtail, Green [14, 31]: 100
- Foxtail, Green plant response rating [14, 32]: 100
- Plant response rating, Ragweed [15, 31]: 0
- Ragweed plant response rating [15, 32]: 0
- Plant response rating, Pigweed, Palmer [16, 29]: 90
- Plant response rating, Pigweed, Palmer [16, 30]: 100
- Plant response rating, Ragweed [17, 29]: 0
- Plant response rating, Ragweed [17, 30]: 0
- Plant response rating, Kochia [18, 29]: 70
- Plant response rating, Kochia [18, 30]: 90
- Plant response rating, Soybean [19, 31]: 80
- Soybean plant response rating [19, 32]: 0
- Plant response rating, Ryegrass, Italian [20, 29]: 30
- Plant response rating, Ryegrass, Italian [20, 30]: 70
- Plant response rating, Kochia [21, 31]: 90
- Kochia plant response rating [21, 32]: 80
- Plant response rating, Wheat [22, 29]: 20
- Plant response rating, Wheat [22, 30]: 20
- Plant response rating, Sedge, Umbrella (Flood) [23]: 0
- Plant response rating, Foxtail, Green [24, 29]: 20
- Plant response rating, Foxtail, Green [24, 30]: 50
- Plant response rating, Blackgrass [25, 29]: 40
- Plant response rating, Blackgrass [25, 30]: 50
- Plant response rating, Oat, Wild [26, 29]: 0
- Plant response rating, Oat, Wild [26, 30]: 0
- Plant response rating, Ducksalad (Flood) [27]: 0
- Plant response rating, Barnyardgrass [28, 31]: 80
- Barnyardgrass plant response rating [28, 32]: 50

SMILES: CCOCC1CN(C(=O)c2cc(-n3cnc(CC)n3)ccc2OC)c2cccc(Cl)c2O1 (centres unmarked) [Compound 378]
- Plant response rating, Barnyardgrass [1, 33]: 80
- Plant response rating, Barnyardgrass [1, 34]: 40
- Plant response rating, Barnyardgrass (Flood) [2]: 0
- Oat, Wild plant response rating [3, 35]: 60
- Plant response rating, Oat, Wild [3, 36]: 20
- Pigweed, Palmer plant response rating [4, 35]: 100
- Plant response rating, Pigweed, Palmer [4, 36]: 100
- Wheat plant response rating [5, 35]: 30
- Plant response rating, Wheat [5, 36]: 10
- Plant response rating, Rice (Flood) [6]: 0
- Plant response rating, Horseweed [7, 33]: 70
- Plant response rating, Horseweed [7, 34]: 10
- Plant response rating, Galium [8, 33]: 100
- Plant response rating, Galium [8, 34]: 90
- Corn plant response rating [9, 35]: 50
- Plant response rating, Corn [9, 36]: 0
- Ryegrass, Italian plant response rating [10, 35]: 90
- Plant response rating, Ryegrass, Italian [10, 36]: 60
- Plant response rating, Corn [11, 33]: 80
- Plant response rating, Corn [11, 34]: 20
- Blackgrass plant response rating [12, 35]: 50
- Plant response rating, Blackgrass [12, 36]: 10
- Plant response rating, Soybean [13, 33]: 100
- Plant response rating, Soybean [13, 34]: 100
- Foxtail, Green plant response rating [14, 35]: 100
- Plant response rating, Foxtail, Green [14, 36]: 90
- Ragweed plant response rating [15, 35]: 80
- Plant response rating, Ragweed [15, 36]: 60
- Plant response rating, Pigweed, Palmer [16, 33]: 100
- Plant response rating, Pigweed, Palmer [16, 34]: 90
- Plant response rating, Ragweed [17, 33]: 90
- Plant response rating, Ragweed [17, 34]: 70
- Plant response rating, Kochia [18, 33]: 100
- Plant response rating, Kochia [18, 34]: 90
- Soybean plant response rating [19, 35]: 90
- Plant response rating, Soybean [19, 36]: 60
- Plant response rating, Ryegrass, Italian [20, 33]: 60
- Plant response rating, Ryegrass, Italian [20, 34]: 20
- Kochia plant response rating [21, 35]: 100
- Plant response rating, Kochia [21, 36]: 100
- Plant response rating, Wheat [22, 33]: 40
- Plant response rating, Wheat [22, 34]: 30
- Plant response rating, Sedge, Umbrella (Flood) [23]: 0
- Plant response rating, Foxtail, Green [24, 33]: 90
- Plant response rating, Foxtail, Green [24, 34]: 70
- Plant response rating, Blackgrass [25, 33]: 50
- Plant response rating, Blackgrass [25, 34]: 30
- Plant response rating, Oat, Wild [26, 33]: 30
- Plant response rating, Oat, Wild [26, 34]: 0
- Plant response rating, Ducksalad (Flood) [27]: 0
- Barnyardgrass plant response rating [28, 35]: 100
- Plant response rating, Barnyardgrass [28, 36]: 80

— patent US20260262643A1, “HERBICIDAL BENZOXAZINES” (FMC CORPORATION, priority 2022, published 2026)
